{
  "source": "patent US5637591A",
  "about": "“Antimicrobial and anticollagenase activity of phenazine-5, 10-dioxide and derivatives” (Fuji ImmunoPharmaceuticals Corp., priority 1995, dated 1997)",
  "key": {"Bacillus cereus": {"test_system": "Bacillus cereus", "test": "IC90 in plating medium, 24-well plates", "type": "cell-based", "conditions": "90% inhibition of growth, overnight 37° C.", "description": "(§1) Drug solutions were mixed with plating medium to produce a range of final drug concentrations. Media with drug were plated in the wells of 24-well plates. A drop of bacterial suspension containing 2-5×10^2 CFU was placed on each well. Plates were incubated overnight at 37° C.\n(§2) The concentration of the compound necessary to reduce viability of each micro-organism by 90% (inhibitory concentration 90%=IC90) is reported in Table 3 as μg/ml. Bacterial strains are listed in order of decreasing susceptibility to 2-aminophenazine-5,10-dioxide."}, "Corynebacterium xerosis": {"test_system": "Corynebacterium xerosis", "test": "IC90 in plating medium, 24-well plates", "type": "cell-based", "description": "as §1, §2"}, "E. coli (strain B)": {"test_system": "E. coli (strain B)", "test": "IC90 in plating medium, 24-well plates", "type": "cell-based", "conditions": "Escherichia coli, rfa", "description": "as §1, §2"}, "Enterobacter cloacae": {"test_system": "Enterobacter cloacae", "test": "IC90 in plating medium, 24-well plates", "type": "cell-based", "description": "as §1, §2"}, "Klebsiella pneumoniae": {"test_system": "Klebsiella pneumoniae", "test": "IC90 in plating medium, 24-well plates", "type": "cell-based", "description": "as §1, §2"}, "Micrococcus luteus": {"test_system": "Micrococcus luteus", "test": "IC90 in plating medium, 24-well plates", "type": "cell-based", "description": "as §1, §2"}, "Proteus mirabilis": {"test_system": "Proteus mirabilis", "test": "IC90 in plating medium, 24-well plates", "type": "cell-based", "description": "as §1, §2"}, "Pseudomonas aeruginosa": {"test_system": "Pseudomonas aeruginosa", "test": "IC90 in plating medium, 24-well plates", "type": "cell-based", "description": "as §1, §2"}, "Serratia marsescens": {"test_system": "Serratia marsescens", "test": "IC90 in plating medium, 24-well plates", "type": "cell-based", "description": "as §1, §2"}, "Staphylococcus aureus": {"test_system": "Staphylococcus aureus", "test": "IC90 in plating medium, 24-well plates", "type": "cell-based", "description": "as §1, §2"}, "Streptococcus faecalis": {"test_system": "Streptococcus faecalis", "test": "IC90 in plating medium, 24-well plates", "type": "cell-based", "conditions": "Enterococcus faecalis", "description": "as §1, §2"}, "[1]": {"test_system": "purified collagenase from P. gingivalis", "test": "anti-collagenase activity, 3H-collagen hydrolysis", "type": "biochemical", "conditions": "for % Inhibition of collagenase: 24 h at 25° C.", "description": "Collagenase activity in the presence of the preferred compound 2-aminophenazine-5,10-dioxide and in the presence of Tetracycline were measured by incubating ^3 H-collagen with purified collagenase from P. gingivalis using increasing drag concentrations. After 24 h at 25° C., unhydrolyzed collagen fibers were removed from the mixture by centrifugation, and the specific activity of ^3 H in the supernatant quantified as a measure of hydrolyzed collagen. Percent inhibition was determined by subtracting the value in the presence of test compound from the control value, then dividing this quantity by the control value [(control-compound)/control×100]."}},
  "data": [
    {"molecule": "Nc1ccc2c(c1)[n+]([O-])c1ccccc1[n+]2[O-]", "note": "[2-aminophenazine-5,10-dioxide]", "values": [
      {"measurement": "IC90", "setting": "Bacillus cereus", "result": 0.31, "unit": "µg/mL"},
      {"measurement": "IC90", "setting": "Corynebacterium xerosis", "result": 1.25, "unit": "µg/mL"},
      {"measurement": "IC90", "setting": "E. coli (strain B)", "result": 0.31, "unit": "µg/mL"},
      {"measurement": "IC90", "setting": "Enterobacter cloacae", "result": "> 10", "unit": "µg/mL"},
      {"measurement": "IC90", "setting": "Klebsiella pneumoniae", "result": 10, "unit": "µg/mL"},
      {"measurement": "activity against M. luteus", "setting": "Micrococcus luteus", "result": "lack of activity"},
      {"measurement": "IC90", "setting": "Micrococcus luteus; Micrococcus luteus", "result": 10, "unit": "µg/mL"},
      {"measurement": "IC90", "setting": "Proteus mirabilis", "result": 5, "unit": "µg/mL"},
      {"measurement": "IC90", "setting": "Pseudomonas aeruginosa", "result": "> 10", "unit": "µg/mL"},
      {"measurement": "IC90", "setting": "Serratia marsescens", "result": 10, "unit": "µg/mL"},
      {"measurement": "IC90", "setting": "Staphylococcus aureus", "result": 0.62, "unit": "µg/mL"},
      {"measurement": "IC90", "setting": "Streptococcus faecalis", "result": 5, "unit": "µg/mL"},
      {"measurement": "% Inhibition of collagenase", "setting": "[1]; 1 μg/ml", "result": 11.6, "unit": "%"},
      {"measurement": "% Inhibition of collagenase", "setting": "[1]; 10 μg/ml", "result": 47.3, "unit": "%"},
      {"measurement": "% Inhibition of collagenase", "setting": "[1]; 50 μg/ml", "result": 57.3, "unit": "%"},
      {"measurement": "% Inhibition of collagenase", "setting": "[1]; 100 μg/ml", "result": 81.7, "unit": "%"},
      {"measurement": "anti-collagenase IC50", "setting": "[1]; estimated from Table 5", "result": "more than 10 μg/ml"}
    ]}
  ]
}
